Data reported in patent US11015200B2, “Antisense-induced exon exclusion in myostatin” (Sarepta Therapeutics, Inc., priority 2015, dated 2021).
{TEG} = triethylene glycol spacer

What was measured:
[1] = system: exon 2 of the human myostatin gene (huMSTN); assay: Exon 2 skipping by RT-PCR in nucleofected human rhabdomyosarcoma (RD) cells; type: cell-based; conditions: for EC50: RD cells nucleofected with PMO at 10, 3, 1, 0.3 μM, overnight, concentration inducing 50% exon skipping; for exon skipping, in words: third series, FIG. 5, RD cells, based on the calculated EC50 values
Procedure: (§1) In vitro experiments were performed to investigate the ability of antisense oligonucleotides designed and prepared as described above to decrease the expression of exon 2 containing myostatin pre-mRNA. Both human rhabdomyosarcoma cells (RD cells; ATCC CCL-136) and primary human myoblasts were used in the experiments as noted. RD cells or primary human skeletal myoblasts were nucleofected with PMOs at 10, 3, 1 and 0.3 μM in SG or P3 nucleofector solution, respectively, and incubated overnight at 37° C. with 5% CO2. Total RNA was isolated from the cells and RT-PCR was performed using primers Myostatin EX1 Fwd (5′ […] SEQ ID NO: 48) and Myostatin EX3 Rev (5′ […] SEQ ID NO: 49). Amplified samples were analyzed using the LabChip Caliper to determine percent exon 2 skipping. EC50 values were determined using non-linear regression analysis in GraphPad Prism. EC50 values represent the concentration at which the test PMO induces 50% exon skipping.

[2] = system: exon 2 of the human myostatin gene (huMSTN); assay: Exon 2 skipping by RT-PCR in nucleofected primary human myoblasts; type: cell-based; conditions: primary human myoblasts nucleofected with PMO at 10, 3, 1, 0.3 μM, overnight, concentration inducing 50% exon skipping
Procedure: as §1

[3] = second series (FIG. 4), * = ambiguous fit on non-linear regression

Question: “huMSTN-SA2(02 + 23): PMO, 5′ TEG, 3′ H; targeting sequence ATCCACTTGCATTAGAAAATCAGCT (all phosphorodiamidate morpholino (PMO), 5' {TEG})” was tested. Which EC50 ([1]; third series (FIG. 5)) did it give?
Answer: 1020 nM

Question: What does the source list for “huMSTN-SA2(−01 + 24): PMO, 5′ TEG, 3′ H; targeting sequence CATCCACTTGCATTAGAAAATCAGC (all phosphorodiamidate morpholino (PMO), 5' {TEG})”?
Answer: EC50 ([1]; third series (FIG. 5)): 551 nM; exon skipping, in words [1]: most effective

Question: With “huMSTN-SA2(−01 + 25): PMO, 5′ TEG, 3′ H; targeting sequence CCATCCACTTGCATTAGAAAATCAGC (all phosphorodiamidate morpholino (PMO), 5' {TEG})” as the substance, how does the EC50 ([2]; first series (FIG. 3)) read?
Answer: 2160 nM

Question: “huMSTN-SA2(−03 + 22): PMO, 5′ TEG, 3′ H; targeting sequence TCCACTTGCATTAGAAAATCAGCTA (all phosphorodiamidate morpholino (PMO), 5' {TEG})” was tested. Which EC50 ([1]; third series (FIG. 5)) did it give?
Answer: 11900 nM

Question: How did the EC50 ([1]; third series (FIG. 5)) turn out when “huMSTN-SA2(−04 + 21): PMO, 5′ TEG, 3′ H; targeting sequence CCACTTGCATTAGAAAATCAGCTAT (all phosphorodiamidate morpholino (PMO), 5' {TEG})” was run?
Answer: 365 nM

Question: What about the “exon skipping, in words” value [1] of the same substance?
Answer: most effective

Question: How did the EC50 ([2]; first series (FIG. 3)) turn out when “huMSTN-SA2(−05 + 20): PMO, 5′ TEG, 3′ H; targeting sequence CACTTGCATTAGAAAATCAGCTATA (all phosphorodiamidate morpholino (PMO), 5' {TEG})” was run?
Answer: 3860 nM

Question: And the EC50 ([1]; third series (FIG. 5))?
Answer: 214 nM

Question: What about the “exon skipping, in words” value [1] of the same substance?
Answer: most effective

Question: “huMSTN-SA2(−07 + 18): PMO, 5′ TEG, 3′ H; targeting sequence CTTGCATTAGAAAATCAGCTATAAA (all phosphorodiamidate morpholino (PMO), 5' {TEG})” was tested. Which EC50 ([1]; third series (FIG. 5)) did it give?
Answer: 881 nM

Question: “muhuD30-SD2(+30 + 1): sequence known in the prior art (US 2013/0085139), 5′ TEG, 3′ H; CAGCCCATCTTCTCCTGGTCCTGGGAAGGT (all phosphorodiamidate morpholino (PMO), 5' {TEG}) [reference compound]” was tested. Which EC50 ([2]; first series (FIG. 3)) did it give?
Answer: 2700 nM

Question: What about the EC50 [1, 3] of the same substance?
Answer: 522 nM

Question: With “muhuMSTN-SD2(+01 − 23): PMO, 5′ TEG, 3′ H; targeting sequence TGTTATTTTCAGTTATCACTTACC (all phosphorodiamidate morpholino (PMO), 5' {TEG})” as the substance, how does the EC50 ([2]; fourth series (FIG. 6)) read?
Answer: 648 nM

Question: “muhuMSTN-SD2(+01 − 24): PMO, 5′ TEG, 3′ H; targeting sequence ATGTTATTTTCAGTTATCACTTACC (all phosphorodiamidate morpholino (PMO), 5' {TEG})” was tested. Which EC50 ([2]; fourth series (FIG. 6)) did it give?
Answer: 642 nM

Question: For “muhuMSTN-SD2(+02 − 18): PMO, 5′ TEG, 3′ H; targeting sequence TTTTCAGTTATCACTTACCA (all phosphorodiamidate morpholino (PMO), 5' {TEG})”, which EC50 ([2]; fourth series (FIG. 6)) is on record?
Answer: 6210 nM

Question: “muhuMSTN-SD2(+02 − 19): PMO, 5′ TEG, 3′ H; targeting sequence ATTTTCAGTTATCACTTACCA (all phosphorodiamidate morpholino (PMO), 5' {TEG})” was tested. Which EC50 ([2]; fourth series (FIG. 6)) did it give?
Answer: 3580 nM

Question: With “muhuMSTN-SD2(+02 − 20): PMO, 5′ TEG, 3′ H; targeting sequence TATTTTCAGTTATCACTTACCA (all phosphorodiamidate morpholino (PMO), 5' {TEG})” as the substance, how does the EC50 ([2]; fourth series (FIG. 6)) read?
Answer: 4060 nM

Question: Which EC50 ([2]; fourth series (FIG. 6)) does the source give for “muhuMSTN-SD2(+02 − 21): PMO, 5′ TEG, 3′ H; targeting sequence TTATTTTCAGTTATCACTTACCA (all phosphorodiamidate morpholino (PMO), 5' {TEG})” here?
Answer: 3990 nM

Question: For “muhuMSTN-SD2(+02 − 22): PMO, 5′ TEG, 3′ H; targeting sequence GTTATTTTCAGTTATCACTTACCA (all phosphorodiamidate morpholino (PMO), 5' {TEG})”, which EC50 ([2]; fourth series (FIG. 6)) is on record?
Answer: 687 nM

Question: “muhuMSTN-SD2(+02 − 23): PMO, 5′ TEG, 3′ H; targeting sequence TGTTATTTTCAGTTATCACTTACCA (all phosphorodiamidate morpholino (PMO), 5' {TEG})” was tested. Which EC50 ([2]; fourth series (FIG. 6)) did it give?
Answer: 277 nM

Question: How did the EC50 ([2]; fourth series (FIG. 6)) turn out when “muhuMSTN-SD2(+04 − 16): PMO, 5′ TEG, 3′ H; targeting sequence TTCAGTTATCACTTACCAGC (all phosphorodiamidate morpholino (PMO), 5' {TEG})” was run?
Answer: 3910 nM

Question: “muhuMSTN-SD2(+04 − 21): PMO, 5′ TEG, 3′ H; targeting sequence TTATTTTCAGTTATCACTTACCAGC (all phosphorodiamidate morpholino (PMO), 5' {TEG})” was tested. Which EC50 ([2]; first series (FIG. 3)) did it give?
Answer: 1050 nM

Question: And the EC50 [1, 3]?
Answer: 0.92 nM

Question: “muhuMSTN-SD2(+05 − 16): PMO, 5′ TEG, 3′ H; targeting sequence TTCAGTTATCACTTACCAGCC (all phosphorodiamidate morpholino (PMO), 5' {TEG})” was tested. Which EC50 ([2]; fourth series (FIG. 6)) did it give?
Answer: 1330 nM

Question: Which EC50 ([2]; fourth series (FIG. 6)) does the source give for “muhuMSTN-SD2(+06 − 16): PMO, 5′ TEG, 3′ H; targeting sequence TTCAGTTATCACTTACCAGCCC (all phosphorodiamidate morpholino (PMO), 5' {TEG})” here?
Answer: 829 nM

Question: “muhuMSTN-SD2(+07 − 16): PMO, 5′ TEG, 3′ H; targeting sequence TTCAGTTATCACTTACCAGCCCA (all phosphorodiamidate morpholino (PMO), 5' {TEG})” was tested. Which EC50 ([2]; fourth series (FIG. 6)) did it give?
Answer: 612 nM

Question: How did the EC50 ([2]; first series (FIG. 3)) turn out when “muhuMSTN-SD2(+07 − 18): PMO, 5′ TEG, 3′ H; targeting sequence TTTTCAGTTATCACTTACCAGCCCA (all phosphorodiamidate morpholino (PMO), 5' {TEG})” was run?
Answer: 662 nM

Question: And the EC50 [1, 3]?
Answer: 0.06 nM

Question: For “muhuMSTN-SD2(+08 − 16): PMO, 5′ TEG, 3′ H; targeting sequence TTCAGTTATCACTTACCAGCCCAT (all phosphorodiamidate morpholino (PMO), 5' {TEG})”, which EC50 ([2]; fourth series (FIG. 6)) is on record?
Answer: 622 nM

Question: Which EC50 ([2]; fourth series (FIG. 6)) does the source give for “muhuMSTN-SD2(+09 − 11): PMO, 5′ TEG, 3′ H; targeting sequence TTATCACTTACCAGCCCATC (all phosphorodiamidate morpholino (PMO), 5' {TEG})” here?
Answer: > 10000 nM

Question: How did the EC50 ([2]; fourth series (FIG. 6)) turn out when “muhuMSTN-SD2(+09 − 12): PMO, 5′ TEG, 3′ H; targeting sequence GTTATCACTTACCAGCCCATC (all phosphorodiamidate morpholino (PMO), 5' {TEG})” was run?
Answer: 4350 nM

Question: Which EC50 ([2]; fourth series (FIG. 6)) does the source give for “muhuMSTN-SD2(+09 − 13): PMO, 5′ TEG, 3′ H; targeting sequence AGTTATCACTTACCAGCCCATC (all phosphorodiamidate morpholino (PMO), 5' {TEG})” here?
Answer: 2400 nM

Question: For “muhuMSTN-SD2(+09 − 14): PMO, 5′ TEG, 3′ H; targeting sequence CAGTTATCACTTACCAGCCCATC (all phosphorodiamidate morpholino (PMO), 5' {TEG})”, which EC50 ([2]; fourth series (FIG. 6)) is on record?
Answer: 1250 nM

Question: For “muhuMSTN-SD2(+09 − 15): PMO, 5′ TEG, 3′ H; targeting sequence TCAGTTATCACTTACCAGCCCATC (all phosphorodiamidate morpholino (PMO), 5' {TEG})”, which EC50 ([2]; fourth series (FIG. 6)) is on record?
Answer: 771 nM

Question: “muhuMSTN-SD2(+09 − 16): PMO, 5′ TEG, 3′ H; targeting sequence TTCAGTTATCACTTACCAGCCCATC (all phosphorodiamidate morpholino (PMO), 5' {TEG})” was tested. Which EC50 ([2]; fourth series (FIG. 6)) did it give?
Answer: 549 nM

Question: What does the source list for “muhuMSTN-SD2(+10 − 15): PMO, 5′ TEG, 3′ H; targeting sequence TCAGTTATCACTTACCAGCCCATCT (all phosphorodiamidate morpholino (PMO), 5' {TEG})”?
Answer: EC50 ([2]; first series (FIG. 3)): 1070 nM; EC50 [1, 3]: 0.02 nM; EC50 ([1]; third series (FIG. 5)): 115 nM; exon skipping, in words [1]: most effective

Question: For “muhuMSTN-SD2(+13 − 12): PMO, 5′ TEG, 3′ H; targeting sequence GTTATCACTTACCAGCCCATCTTCT (all phosphorodiamidate morpholino (PMO), 5' {TEG})”, which EC50 [1, 3] is on record?
Answer: 970 nM

Question: For “muhuMSTN-SD2(+18 − 07): PMO, 5′ TEG, 3′ H; targeting sequence CACTTACCAGCCCATCTTCTCCTGG (all phosphorodiamidate morpholino (PMO), 5' {TEG})”, which EC50 ([2]; first series (FIG. 3)) is on record?
Answer: 3880 nM

Question: And the EC50 [1, 3]?
Answer: 1290 nM

Question: How did the EC50 [1, 3] turn out when “muhuMSTN-SD2(+19 − 06): PMO, 5′ TEG, 3′ H; targeting sequence ACTTACCAGCCCATCTTCTCCTGGT (splice-switching; all phosphorodiamidate morpholino (PMO), 5' {TEG})” was run?
Answer: 1330 nM

Question: With “muhuMSTN-SD2(+22 − 03): PMO, 5′ TEG, 3′ H; targeting sequence TACCAGCCCATCTTCTCCTGGTCCT (splice-switching; all phosphorodiamidate morpholino (PMO), 5' {TEG})” as the substance, how does the EC50 [1, 3] read?
Answer: 1410 nM

Question: For “muhuMSTN-SD2(+24 − 01): PMO, 5′ TEG, 3′ H; targeting sequence CCAGCCCATCTTCTCCTGGTCCTGG (splice-switching; all phosphorodiamidate morpholino (PMO), 5' {TEG})”, which EC50 [1, 3] is on record?
Answer: 1410 nM
